The record followed here is PubChem BioAssay AID1259407 (Chemical Carcinogenesis Research Information System (CCRIS), 2018).

For this series, the system named is CCRIS mutagenicity, Ames/micronucleus/aberration tests. The series can be described thus: CCRIS mutagenicity studies.

Structures are written as SMILES. The source made the active and inactive calls. How the calls were made is not given here.

Turning to `CC(=O)N(C)N=O`, the mutagenic call is, setting by setting: (Test System: AMES SALMONELLA TYPHIMURIUM, Strain/Indicator: TA1535, Metabolic Activation: NONE, Method: STANDARD PLATE) “active; positive”; (Test System: E. COLI, Strain/Indicator: WU3610, Metabolic Activation: NONE, Method: SUSPENSION/PLATE) “active; positive”.
Regarding `Cc1ccc2c3c1ccc1cccc(c13)C2`, the mutagenic call (Test System: AMES SALMONELLA TYPHIMURIUM, Strain/Indicator: TA100, Metabolic Activation: RAT, LIVER, S-9, AROCLOR 1254, Method: STANDARD PLATE) was “active; positive”.
Take `[Cl][Pd-2]([Cl])([Cl])([Cl])([Cl])[Cl]`: the mutagenic call runs as follows: (Test System: AMES SALMONELLA TYPHIMURIUM, Strain/Indicator: TA97A, Metabolic Activation: NONE, Method: STANDARD PLATE) “inactive; negative”; (Test System: AMES SALMONELLA TYPHIMURIUM, Strain/Indicator: TA97A, Metabolic Activation: RAT, LIVER, S-9, PHENOBARBITAL AND 5,6-BENZOFLAVONE, Method: STANDARD PLATE) “inactive; negative”; (Test System: AMES SALMONELLA TYPHIMURIUM, Strain/Indicator: TA97A, Metabolic Activation: RAT, LIVER, S-9, PHENOBARBITAL AND BETA-NAPHTHOFLAVONE, Method: STANDARD PLATE) “inactive; negative”; (Test System: AMES SALMONELLA TYPHIMURIUM, Strain/Indicator: TA98, Metabolic Activation: NONE, Method: STANDARD PLATE) “inactive; negative”; (Test System: AMES SALMONELLA TYPHIMURIUM, Strain/Indicator: TA98, Metabolic Activation: RAT, LIVER, S-9, PHENOBARBITAL AND 5,6-BENZOFLAVONE, Method: STANDARD PLATE) “inactive; negative”; (Test System: AMES SALMONELLA TYPHIMURIUM, Strain/Indicator: TA98, Metabolic Activation: RAT, LIVER, S-9, PHENOBARBITAL AND BETA-NAPHTHOFLAVONE, Method: STANDARD PLATE) “inactive; negative”. The mutagenic call is, setting by setting: (Test System: AMES SALMONELLA TYPHIMURIUM, Strain/Indicator: TA100, Metabolic Activation: NONE, Method: STANDARD PLATE) “inactive; negative”; (Test System: AMES SALMONELLA TYPHIMURIUM, Strain/Indicator: TA100, Metabolic Activation: RAT, LIVER, S-9, PHENOBARBITAL AND 5,6-BENZOFLAVONE, Method: STANDARD PLATE) “inactive; negative”; (Test System: AMES SALMONELLA TYPHIMURIUM, Strain/Indicator: TA100, Metabolic Activation: RAT, LIVER, S-9, PHENOBARBITAL AND BETA-NAPHTHOFLAVONE, Method: STANDARD PLATE) “inactive; negative”; (Test System: AMES SALMONELLA TYPHIMURIUM, Strain/Indicator: TA102, Metabolic Activation: NONE, Method: STANDARD PLATE) “inactive; negative”; (Test System: AMES SALMONELLA TYPHIMURIUM, Strain/Indicator: TA102, Metabolic Activation: RAT, LIVER, S-9, PHENOBARBITAL AND 5,6-BENZOFLAVONE, Method: STANDARD PLATE) “inactive; negative”; (Test System: AMES SALMONELLA TYPHIMURIUM, Strain/Indicator: TA102, Metabolic Activation: RAT, LIVER, S-9, PHENOBARBITAL AND BETA-NAPHTHOFLAVONE, Method: STANDARD PLATE) “inactive; negative”.
As for `COc1ccc(-c2oc3ccccc3c(=O)c2[N+](=O)[O-])cc1[N+](=O)[O-]`, the mutagenic call is “active; positive” (Test System: AMES SALMONELLA TYPHIMURIUM, Strain/Indicator: TA100, Metabolic Activation: RAT LIVER S-9, AROCLOR 1254, Method: STANDARD PLATE) and “active; positive” (Test System: AMES SALMONELLA TYPHIMURIUM, Strain/Indicator: YG1042, Metabolic Activation: RAT LIVER S-9, AROCLOR 1254, Method: STANDARD PLATE).
Regarding `Nc1cccc(N)c1C(=O)O`, the mutagenic call runs as follows: (Test System: AMES SALMONELLA TYPHIMURIUM, Strain/Indicator: TA98, Metabolic Activation: NONE, Method: PREINCUBATION) “inactive; negative”; (Test System: AMES SALMONELLA TYPHIMURIUM, Strain/Indicator: TA98, Metabolic Activation: RAT, LIVER, S-9, PHENOBARBITAL AND 5,6-BENZOFLAVONE, Method: PREINCUBATION) “active; positive”; (Test System: AMES SALMONELLA TYPHIMURIUM, Strain/Indicator: TA100, Metabolic Activation: NONE, Method: PREINCUBATION) “inactive; negative”; (Test System: AMES SALMONELLA TYPHIMURIUM, Strain/Indicator: TA100, Metabolic Activation: RAT, LIVER, S-9, PHENOBARBITAL AND 5,6-BENZOFLAVONE, Method: PREINCUBATION) “inactive; negative”.
Consider `Nc1ccc2cccc3c2c1-c1ccccc1-3`, for which the mutagenic call is “active; positive” (Test System: AMES SALMONELLA TYPHIMURIUM, Strain/Indicator: TA98, Metabolic Activation: RAT, LIVER, S-9, AROCLOR 1254 (2 OR 4%), Method: STANDARD PLATE); “active; positive” (Test System: AMES SALMONELLA TYPHIMURIUM, Strain/Indicator: TA100, Metabolic Activation: RAT, LIVER, S-9, AROCLOR 1254 (4%), Method: STANDARD PLATE); “inactive; negative” (Test System: AMES SALMONELLA TYPHIMURIUM, Strain/Indicator: TA1535, Metabolic Activation: RAT, LIVER, S-9, AROCLOR 1254 (4%), Method: STANDARD PLATE); “active; positive” (Test System: AMES SALMONELLA TYPHIMURIUM, Strain/Indicator: TA1537, Metabolic Activation: RAT, LIVER, S-9, AROCLOR 1254 (4%), Method: STANDARD PLATE).
